Among the data in patent publication US12122776B2, “Tetracyclic compounds and uses thereof” (Gilead Sciences, Inc., priority 2020, dated 2024) are CC50 and EC50 values, retold here.

Format in all cases: cell-based
Series [1] is described as follows: Cytotoxicity assay in MT-4 cells. Conditions: human; uninfected MT-4 cells, 5 days incubation, Cell Titer Glo. As to the method: Cytotoxicity Assay in MT-4 Cells Assays were performed as above except uninfected MT-4 cells were added to each well containing test compound. In addition, 10 μM puromycin was added to the last column of each assay plate to assess a base level of cytotoxicity.
A general note: Cellular ATP, detected with luciferase, serves as a proxy for viable cell number.

The subject of series [2] is HIV-1 (IIIB). As to the kind of experiment: Antiviral assay in MT-4 cells. Conditions: Human immunodeficiency virus 1, MT4, 120 h; replication of HIV-1 (IIIB) in MT-4 cells, 5 days incubation, Cell Titer Glo. As to the method:
Example 24: HIV MT-4 Antiviral and Cytotoxicity Assay
Antiviral Assay in MT-4 Cells
Compounds were tested in a high-throughput 384-well assay format for their ability to inhibit the replication of HIV-1 (IIIB) in MT-4 cells. Compounds were serially diluted (1:3) in DMSO on 384-well polypropylene plates and further diluted 200-fold into complete RPMI media (10% FBS, 1% P/S) using the Biotek Micro Flow and Labcyte ECHO acoustic dispenser. Each plate contained up to 8 test compounds, with negative (No Drug Control) and 5 μM AZT positive controls. MT-4 cells were pre-infected with 10 μL of either RPMI (mock-infected) or a fresh 1:250 dilution of HIV-1 IIIB concentrated virus stock. Infected and uninfected MT-4 cells were further diluted in complete RPMI media and added to each plate using a Micro Flow dispenser. After 5 days incubation in a humidified and temperature controlled incubator (37° C.), Cell Titer Glo (Promega) was added to the assay plates and chemiluminescence read using an Envision plate-reader. EC50 values were defined as the compound concentration that causes a 50% decrease in luminescence signal, and were calculated using a sigmoidal dose-response model to generate curve fits.

In series [3] the test system is pLai RLuc reporter virus. As to the kind of experiment: HIV MT-4 serum shift antiviral reporter assay. Conditions: Human immunodeficiency virus 1, MT4, 72 h. As to the method:
Example 25: HIV MT-4 Serum Shift Antiviral Reporter Assay
To quantify the amount of protein binding to human serum, compounds were serially diluted (1:3) in DMSO and acoustically transferred onto 384-well assay plates via a Labcyte ECHO robot. Each plate contained up to 8 test compounds, including negative and positive controls, (DMSO, 5 μM AZT respectively). Assay plates were prepared in duplicate, and tested in either CCM (cell culture media) or HS/CCM (human serum/cell culture media). MT-4 cells were first pre-infected with pLai RLuc reporter virus for 2 h at 37° C., then further diluted in either CCM (RPMI media, 10% FBS, 1% P/S) or HS/CCM (RPMI media, 10% FBS, 50% HS, 1% P/S), and subsequently added to each plate using a Biotek Micro Flow dispenser. After a 72-h incubation in a humidified and temperature controlled incubator (37° C.), Renilla Glo (Promega) was added to all assay plates and chemiluminescence read using an Envision plate-reader. EC50 values were defined as the compound concentration that causes a 50% decrease in luminescence signal, and were calculated using a sigmoidal dose-response model to generate curve fits. To determine the amount of protein binding, EC50 fold shifts (or EC50 shifts) were calculated by dividing EC50 (HS/CCM)/EC50 (CCM).
On the technique in general: A reporter such as luciferase makes a cellular process visible.

Setting [4] is: read-out: Antiviral Serum Shift RLuc 50% HS.
Where [5] appears, read: read-out: Antiviral Serum Shift RLuc CCM.

Where two headings read alike, the source gives them in different places.

A word on the CC50: it is the concentration giving 50% cytotoxicity. Higher therefore signals lower toxicity to the cells. As to `O=C1c2c(O)c(=O)c(-c3nnc(Cc4c(F)cc(F)cc4F)s3)c3n2C2(CCCCN1C2)CC3` (centres unmarked) [Compound 7, 11-hydroxy-9-(5-(2,4,6-trifluorobenzyl)-1,3,4-thiadiazol-2-yl)-3,4,5,6,7,8-hexahydro-2,6a-methano[1,4]diazonino[9,1,2-cd]indolizine-1,10-dione], it took 3800 nM to reach half-maximal cytotoxicity in series [1] (CC50 at 5 days). Further, the EC50 came to 3.8 nM in series [2], 60.8 nM in series [3] (setting [4]) and 0.997 nM in series [3] (setting [5]).
Molecule `CO[C@H]1C[C@]23CCCCN(C2)C(=O)c2c(O)c(=O)c(C(=O)NCc4c(F)cc(F)cc4F)c1n23` (single isomer, unassigned) [Compound 12-2] yielded a CC50 at 5 days in series [1] of 11100 nM. Also, the EC50 was found to be 3.26 nM in series [2], 98.4 nM in series [3] (setting [4]) and 1.14 nM in series [3] (setting [5]).
In turn, `O=C(NCc1c(F)cc(F)cc1F)c1c2n3c(c(O)c1=O)C(=O)N1CCCC[C@]3(C[C@H]2O)C1` (single isomer, unassigned) [Compound 9-1] displayed a CC50 at 5 days in series [1] of 8080 nM. Besides, the EC50 in series [2] came to 3.06 nM; in series [3] (setting [4]) it was 200 nM; in series [3] (setting [5]), 0.685 nM.
`O=C(NCc1ccc(F)c(Cl)c1F)c1c2n3c(c(O)c1=O)C(=O)N1CCCC[C@@]3(C[C@@H]2O)C1` (single isomer, unassigned) [Compound 14-2]: in series [1], the CC50 at 5 days stood at 2110 nM. The EC50 was 0.73 nM in series [2], 11 nM in series [3] (setting [4]) and 0.41 nM in series [3] (setting [5]).
In series [1], `O=C(NCc1c(F)cc(F)cc1F)c1c2n3c(c(O)c1=O)C(=O)N1CCCC[C@@]3(C1)[C@@H](O)[C@@H]2O` (single isomer, unassigned) [Compound 11-3] came in with a 50% cytotoxic concentration (CC50) at 5 days of 50000 nM. The figures for the EC50 in series [2], in series [3] (setting [4]) and in series [3] (setting [5]) were 5.28 nM, 7.57 nM and 4.08 nM, respectively.
